Results from US20230382949A1 (HEPTARES THERAPEUTICS LIMITED, priority 2020, published 2023).
Read-outs that look alike come from different tables or passages of the source. Starred links: 1 amine or outer side, 2 acyl side, 3 side chain; linkers in the order of their positions; H or OH if unused. Non-standard residues stand in square brackets, D forms with d. Residues, ends and D or L forms follow the SMILES beside them. *: point of attachment. Ala(piperidin-4-yl) = O=C([C@H](CC1CCN([*:3])CC1)N[*:1])[*:2]; Malonyl(2,2-Me2,histaminyl) = CC(C)(C(=O)NCCc1cnc[nH]1)C(=O)*; dBip = N[C@H](Cc1ccc(-c2ccccc2)cc1)C(=O)O; Oic = O=C(O)[C@@H]1C[C@@H]2CCCC[C@@H]2N1; Phe(4-Br) = N[C@@H](Cc1ccc(Br)cc1)C(=O)O; X2 = COCCOCCOCCOCCOCCNC(=O)C(C)(C)C(=O)*; dPhe(4-Br) = N[C@H](Cc1ccc(Br)cc1)C(=O)O; His(τ-Me) = Cn1cnc(C[C@H](N)C(=O)O)c1; X1 = CC(C)(C(=O)NCCc1ccccc1)C(=O)*; Ser(ΨH,HPro) = O=C(O)[C@@H]1COCN1; hArg = N=C(N)NCCCC[C@H](N)C(=O)O; 3Pal = N[C@@H](Cc1cccnc1)C(=O)O; Pip = O=C(O)[C@@H]1CCCCN1; Nle = CCCC[C@H](N)C(=O)O; Aib = CC(C)(N)C(=O)O

Assays:
human Apelin receptor [1] = target: T1, human Apelin receptor (Homo sapiens, UniProt P35414); assay: β-arrestin accumulation assay, functional agonism of human Apelin receptors; type: cell-based
T1 construct: host or cells: CHO-K1 cells
In short: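 After 16 h at 37° C., cells were exposed to increasing agonist concentrations in serum-free medium for 90 min at 37° C. Detection reagent added for 60 min in the dark; receptor activation read by fluorescence and EC50 derived from concentration-response curves.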
T1 sequence (P32121 whole entry partner, one chain of several): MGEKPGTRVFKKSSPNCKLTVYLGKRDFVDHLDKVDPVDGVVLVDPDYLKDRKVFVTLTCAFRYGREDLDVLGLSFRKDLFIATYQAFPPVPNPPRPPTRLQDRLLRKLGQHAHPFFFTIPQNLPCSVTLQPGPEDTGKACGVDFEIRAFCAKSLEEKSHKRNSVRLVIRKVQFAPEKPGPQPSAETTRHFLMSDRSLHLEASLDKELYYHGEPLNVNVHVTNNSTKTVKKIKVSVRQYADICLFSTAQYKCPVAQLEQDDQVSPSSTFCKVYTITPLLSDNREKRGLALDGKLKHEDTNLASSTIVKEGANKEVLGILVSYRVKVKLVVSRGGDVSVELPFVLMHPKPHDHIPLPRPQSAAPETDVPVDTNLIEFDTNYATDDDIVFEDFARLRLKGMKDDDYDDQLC

human Apelin receptor [2] = target: T2, human Apelin receptor (Homo sapiens, UniProt P35414); assay: cAMP accumulation assay (HTRF), functional agonism of human Apelin receptors; type: cell-based; conditions: for Emax: CHO
T2 sequence (P35414 1-380): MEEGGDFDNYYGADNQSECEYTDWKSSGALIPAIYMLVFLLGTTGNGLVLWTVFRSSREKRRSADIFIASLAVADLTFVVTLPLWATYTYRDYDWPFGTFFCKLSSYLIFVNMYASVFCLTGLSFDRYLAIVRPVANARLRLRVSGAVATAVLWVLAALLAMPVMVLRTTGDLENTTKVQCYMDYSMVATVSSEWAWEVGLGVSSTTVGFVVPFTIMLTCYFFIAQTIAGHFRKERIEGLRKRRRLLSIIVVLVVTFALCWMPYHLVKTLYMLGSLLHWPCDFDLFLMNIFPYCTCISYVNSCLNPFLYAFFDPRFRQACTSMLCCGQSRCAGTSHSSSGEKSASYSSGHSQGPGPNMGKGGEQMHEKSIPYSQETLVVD
Excerpt: cAMP functional assay. cAMP production was quantified using the Homogeneous Time-Resolved Fluorescence (HTRF) cAMP dynamic-2 assay (Cisbio, France).

[3] = Human Apelin agonist cAMP assay, CHO cells stably expressing the human Apelin receptor, 3 uM forskolin
[4] = pEC50, Human Apelin agonist cAMP assay, CHO cells stably expressing the human Apelin receptor, 3 uM forskolin

Compound | EC50 (human Apelin receptor [1]) [nM] | Emax (human Apelin receptor [2]; read-out: Emax) [%] | EC50 (human Apelin receptor [2]; read-out: pEC50 (converted)) [nM] | Emax (human Apelin receptor [2]; [3]) [%] | EC50 (human Apelin receptor [2]; [4]) [nM]
CC(C)C[C@H](NC(=O)[C@@H](CCCNC(=N)N)NC(=O)[C@@H]1CCCCN1C(=O)[C@H](CCCCNC(=N)N)NC(=O)[C@H](CCC(N)=O)NC(=O)[C@@H](CCCNC(=N)N)NC(=O)C(C)(C)C(=O)NCCc1cnc[nH]1)C(=O)NC(C)(C)C(=O)N[C@@H](Cc1cccnc1)C(=O)N[C@@H](CC1CCNCC1)C(=O)NCC(=O)N1[C@H](C(=O)N[C@@H](Cc2ccc(Br)cc2)C(=O)N2CCC[C@H]2C(=O)N[C@H](Cc2ccc(-c3ccccc3)cc2)C(=O)O)C[C@@H]2CCCC[C@@H]21 [Example 31] ({Malonyl(2,2-Me2,histaminyl)}-[dR]Q[hArg][Pip][dR]L[Aib][3Pal][Ala(piperidin-4-yl)]G[Oic][Phe(4-Br)]P[dBip]-OH) | > 10000 | 75.4 | 10 | – | –
CC(C)C[C@H](NC(=O)[C@@H](CCCNC(=N)N)NC(=O)[C@@H]1COCN1C(=O)[C@H](CCCCNC(=N)N)NC(=O)[C@H](CCC(N)=O)NC(=O)[C@@H](CCCNC(=N)N)NC(=O)C(C)(C)C(=O)NCCc1c[nH]cn1)C(=O)NC(C)(C)C(=O)N[C@@H](Cc1c[nH]cn1)C(=O)N[C@@H](CC1CCNCC1)C(=O)NCC(=O)N1[C@H](C(=O)N[C@@H](Cc2ccc(Br)cc2)C(=O)N2CCC[C@H]2C(=O)N[C@H](Cc2ccc(-c3ccccc3)cc2)C(=O)O)C[C@@H]2CCCC[C@@H]21 [Example 11] ({Malonyl(2,2-Me2,histaminyl)}-[dR]Q[hArg][Ser(ΨH,HPro)][dR]L[Aib]H[Ala(piperidin-4-yl)]G[Oic][Phe(4-Br)]P[dBip]-OH) | > 10000 | – | – | 90.6 | 12.6
CCCC[C@H](NC(=O)[C@@H]1C[C@@H]2CCCC[C@@H]2N1C(=O)CNC(=O)[C@H](CC1CCNCC1)NC(=O)[C@H](Cc1ccc(Br)cc1)NC(=O)C(C)(C)NC(=O)[C@H](CC(C)C)NC(=O)[C@@H](CCCNC(=N)N)NC(=O)[C@@H]1CCCN1C(=O)[C@H](CCCCNC(=N)N)NC(=O)[C@H](CCC(N)=O)NC(=O)C(C)(C)C(=O)NCCc1cnc[nH]1)C(=O)N1CCC[C@H]1C(=O)N[C@H](Cc1ccc(-c2ccccc2)cc1)C(=O)O [Example 60] ({Malonyl(2,2-Me2,histaminyl)}-Q[hArg]P[dR]L[Aib][Phe(4-Br)][Ala(piperidin-4-yl)]G[Oic][Nle]P[dBip]-OH) | > 10000 | 59 | 50.1 | – | –
CC(C)C[C@H](NC(=O)[C@@H](CCCNC(=N)N)NC(=O)[C@@H]1CCCCN1C(=O)[C@H](CCCCNC(=N)N)NC(=O)[C@H](CCC(N)=O)NC(=O)[C@@H](CCCNC(=N)N)NC(=O)C(C)(C)C(=O)NCCc1cnc[nH]1)C(=O)NC(C)(C)C(=O)N[C@@H](Cc1c[nH]cn1)C(=O)N[C@@H](CC1CCNCC1)C(=O)N[C@@H](C)C(=O)N1[C@H](C(=O)N[C@@H](Cc2ccc(Br)cc2)C(=O)N2CCC[C@H]2C(=O)N[C@H](Cc2ccc(-c3ccccc3)cc2)C(=O)O)C[C@@H]2CCCC[C@@H]21 [Example 29] ({Malonyl(2,2-Me2,histaminyl)}-[dR]Q[hArg][Pip][dR]L[Aib]H[Ala(piperidin-4-yl)]A[Oic][Phe(4-Br)]P[dBip]-OH) | > 10000 | – | – | 69.7 | 2.51
CC(C)C[C@H](NC(=O)[C@H](CCCNC(=N)N)NC(=O)[C@@H]1CCCN1C(=O)[C@@H](CCCNC(=N)N)NC(=O)[C@H](CCC(N)=O)NC(=O)C(C)(C)C(=O)NCCc1cnc[nH]1)C(=O)NC(C)(C)C(=O)N[C@@H](Cc1c[nH]cn1)C(=O)N[C@@H](CC1CCNCC1)C(=O)NCC(=O)N1[C@H](C(=O)N[C@@H](Cc2ccc(Br)cc2)C(=O)N2CCC[C@H]2C(=O)N[C@H](Cc2ccc(Br)cc2)C(=O)O)C[C@@H]2CCCC[C@@H]21 [Example 41] ({Malonyl(2,2-Me2,histaminyl)}-Q[dR]PRL[Aib]H[Ala(piperidin-4-yl)]G[Oic][Phe(4-Br)]P[dPhe(4-Br)]-OH) | > 10000 | 46.1 | 50.1 | – | –
CC(C)C[C@H](NC(=O)[C@H](CCCNC(=N)N)NC(=O)[C@@H]1CCCN1C(=O)[C@@H](CCCNC(=N)N)NC(=O)[C@H](CCC(N)=O)NC(=O)C(C)(C)C(=O)NCCc1cnc[nH]1)C(=O)NC(C)(C)C(=O)N[C@@H](Cc1cn(C)cn1)C(=O)N[C@@H](CC1CCNCC1)C(=O)NCC(=O)N1[C@H](C(=O)N[C@@H](Cc2ccc(Br)cc2)C(=O)N2CCC[C@H]2C(=O)N[C@H](Cc2ccc(-c3ccccc3)cc2)C(=O)O)C[C@@H]2CCCC[C@@H]21 [Example 49] ({Malonyl(2,2-Me2,histaminyl)}-Q[dR]PRL[Aib][His(τ-Me)][Ala(piperidin-4-yl)]G[Oic][Phe(4-Br)]P[dBip]-OH) | > 10000 | – | – | 87.2 | 7.94
CC(C)C[C@H](NC(=O)[C@@H](CCCNC(=N)N)NC(=O)[C@@H]1CCCN1C(=O)[C@H](CCCCNC(=N)N)NC(=O)[C@H](CCC(N)=O)NC(=O)[C@@H](CCCNC(=N)N)NC(=O)C(C)(C)C(=O)NCCc1ccccc1)C(=O)NC(C)(C)C(=O)N[C@@H](Cc1c[nH]cn1)C(=O)N[C@@H](CC1CCNCC1)C(=O)NCC(=O)N1[C@H](C(=O)N[C@@H](Cc2ccc(Br)cc2)C(=O)N2CCC[C@H]2C(=O)N[C@H](Cc2ccc(-c3ccccc3)cc2)C(=O)O)C[C@@H]2CCCC[C@@H]21 [Example 5] (X1-[dR]Q[hArg]P[dR]L[Aib]H[Ala(piperidin-4-yl)]G[Oic][Phe(4-Br)]P[dBip]-OH) | > 10000 | – | – | 47.2 | 15.8
CC(C)C[C@H](NC(=O)[C@@H](CCCNC(=N)N)NC(=O)[C@@H]1CCCN1C(=O)[C@H](CCCNC(=N)N)NC(=O)[C@H](CCC(N)=O)NC(=O)[C@@H](CCCNC(=N)N)NC(=O)C(C)(C)C(=O)NCCc1c[nH]cn1)C(=O)NC(C)(C)C(=O)N[C@@H](Cc1c[nH]cn1)C(=O)N[C@@H](CC1CCNCC1)C(=O)NCC(=O)N1[C@H](C(=O)N[C@@H](Cc2ccc(Br)cc2)C(=O)N2CCC[C@H]2C(=O)N[C@H](Cc2ccc(-c3ccccc3)cc2)C(=O)O)C[C@@H]2CCCC[C@@H]21 [Example 9] ({Malonyl(2,2-Me2,histaminyl)}-[dR]QRP[dR]L[Aib]H[Ala(piperidin-4-yl)]G[Oic][Phe(4-Br)]P[dBip]-OH) | > 10000 | – | – | 86.9 | 6.31
CC(C)C[C@H](NC(=O)[C@@H](CCCNC(=N)N)NC(=O)[C@@H]1CCCN1C(=O)[C@H](CCCCNC(=N)N)NC(=O)[C@H](CCC(N)=O)NC(=O)C(C)(C)C(=O)NCCc1cnc[nH]1)C(=O)NC(C)(C)C(=O)N[C@@H](Cc1c[nH]cn1)C(=O)N[C@@H](CC1CCNCC1)C(=O)NCC(=O)N1[C@H](C(=O)N[C@@H](Cc2ccc(Br)cc2)C(=O)N2CCC[C@H]2C(=O)N[C@H](Cc2ccc(-c3ccccc3)cc2)C(=O)O)C[C@@H]2CCCC[C@@H]21 [Example 39] ({Malonyl(2,2-Me2,histaminyl)}-Q[hArg]P[dR]L[Aib]H[Ala(piperidin-4-yl)]G[Oic][Phe(4-Br)]P[dBip]-OH) | > 10000 | – | – | 62.1 | 31.6
COCCOCCOCCOCCOCCNC(=O)C(C)(C)C(=O)N[C@H](CCCNC(=N)N)C(=O)N[C@@H](CCC(N)=O)C(=O)N[C@@H](CCCCNC(=N)N)C(=O)N1CCC[C@H]1C(=O)N[C@H](CCCNC(=N)N)C(=O)N[C@@H](CC(C)C)C(=O)NC(C)(C)C(=O)N[C@@H](Cc1c[nH]cn1)C(=O)N[C@@H](CC1CCNCC1)C(=O)NCC(=O)N1[C@H](C(=O)N[C@@H](Cc2ccc(Br)cc2)C(=O)N2CCC[C@H]2C(=O)N[C@H](Cc2ccc(-c3ccccc3)cc2)C(=O)O)C[C@@H]2CCCC[C@@H]21 [Example 7] (X2-[dR]Q[hArg]P[dR]L[Aib]H[Ala(piperidin-4-yl)]G[Oic][Phe(4-Br)]P[dBip]-OH) | > 10000 | 59.2 | 20 | – | –
